Paper PMC9186362, “Design and biological evaluation of substituted 5,7-dihydro-6H-indolo[2,3-c]quinolin-6-one as novel selective Haspin inhibitors” (Journal of Enzyme Inhibition and Medicinal Chemistry, 2022)

How the values were obtained:
HsCdk2/Cyc A = HsCdk2/Cyc A (Homo sapiens, UniProt P24941); test: ADP-Glo kinase assay; format: biochemical, Homo sapiens (Hs); details: mean n = 2, % of maximum activity of DMSO control, read-out: % Residual activity at 1 μM CDK2
Experimental: (§1) Kinase activities were determined using the ADP-Glo methodology (ADP-Glo Kinase Assay; Promega) according to the assay described by Nguyen et al.[32] except for MmCLK1. The later was assayed in the following buffer: 10 mM MgCl2, 1 mM EGTA, 1 mM DTT, 25 mM Tris-HCl pH 7.5, 50 µg/ml heparin, 0.15 mg/ml BSA, with 0.027 µg/µl of the following peptide: GRSRSRSRSRSR as substrate.

HsCdk5/p25 = HsCdk5/p25 (Homo sapiens, UniProt Q00535); test: ADP-Glo kinase assay; format: biochemical, Homo sapiens (Hs); details: mean n = 2, % of maximum activity of DMSO control, read-out: % Residual activity at 1 μM CDK5
Chain of HsCdk5/p25 (Q00535 whole entry): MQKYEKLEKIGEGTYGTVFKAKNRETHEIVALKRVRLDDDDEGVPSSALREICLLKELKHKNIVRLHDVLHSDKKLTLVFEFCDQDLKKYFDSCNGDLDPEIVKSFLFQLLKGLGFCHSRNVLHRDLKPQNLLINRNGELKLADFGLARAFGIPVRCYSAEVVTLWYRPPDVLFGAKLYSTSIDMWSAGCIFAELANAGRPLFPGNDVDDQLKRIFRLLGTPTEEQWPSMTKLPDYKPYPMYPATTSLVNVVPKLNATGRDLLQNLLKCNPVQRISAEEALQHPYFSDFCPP
Chain of HsCdk5/p25 (Q15078 99-307 partner limits assumed): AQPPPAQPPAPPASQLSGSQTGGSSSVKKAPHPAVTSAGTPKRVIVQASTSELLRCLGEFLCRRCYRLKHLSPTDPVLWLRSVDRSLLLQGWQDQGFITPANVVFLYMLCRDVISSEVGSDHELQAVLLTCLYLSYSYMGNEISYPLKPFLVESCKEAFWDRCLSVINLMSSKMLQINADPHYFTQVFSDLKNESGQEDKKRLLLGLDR
Experimental: as §1

HsCdk9/Cyc E = HsCdk9/Cyc E (Homo sapiens, UniProt P50750); test: ADP-Glo kinase assay; format: biochemical, Homo sapiens (Hs); details: mean n = 2, % of maximum activity of DMSO control, read-out: % Residual activity at 1 μM CDK9
Chain of HsCdk9/Cyc E (P50750 whole entry): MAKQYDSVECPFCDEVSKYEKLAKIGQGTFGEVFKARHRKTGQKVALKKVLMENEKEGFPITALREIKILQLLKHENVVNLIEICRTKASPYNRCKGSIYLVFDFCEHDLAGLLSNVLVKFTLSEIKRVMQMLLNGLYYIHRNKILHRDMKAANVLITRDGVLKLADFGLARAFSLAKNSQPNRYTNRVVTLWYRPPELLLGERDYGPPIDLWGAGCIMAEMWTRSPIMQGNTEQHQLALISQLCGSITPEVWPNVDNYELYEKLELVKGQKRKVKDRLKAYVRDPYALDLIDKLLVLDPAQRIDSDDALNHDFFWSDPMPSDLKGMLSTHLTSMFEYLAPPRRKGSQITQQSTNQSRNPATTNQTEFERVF
Chain of HsCdk9/Cyc E (O60563 whole entry partner): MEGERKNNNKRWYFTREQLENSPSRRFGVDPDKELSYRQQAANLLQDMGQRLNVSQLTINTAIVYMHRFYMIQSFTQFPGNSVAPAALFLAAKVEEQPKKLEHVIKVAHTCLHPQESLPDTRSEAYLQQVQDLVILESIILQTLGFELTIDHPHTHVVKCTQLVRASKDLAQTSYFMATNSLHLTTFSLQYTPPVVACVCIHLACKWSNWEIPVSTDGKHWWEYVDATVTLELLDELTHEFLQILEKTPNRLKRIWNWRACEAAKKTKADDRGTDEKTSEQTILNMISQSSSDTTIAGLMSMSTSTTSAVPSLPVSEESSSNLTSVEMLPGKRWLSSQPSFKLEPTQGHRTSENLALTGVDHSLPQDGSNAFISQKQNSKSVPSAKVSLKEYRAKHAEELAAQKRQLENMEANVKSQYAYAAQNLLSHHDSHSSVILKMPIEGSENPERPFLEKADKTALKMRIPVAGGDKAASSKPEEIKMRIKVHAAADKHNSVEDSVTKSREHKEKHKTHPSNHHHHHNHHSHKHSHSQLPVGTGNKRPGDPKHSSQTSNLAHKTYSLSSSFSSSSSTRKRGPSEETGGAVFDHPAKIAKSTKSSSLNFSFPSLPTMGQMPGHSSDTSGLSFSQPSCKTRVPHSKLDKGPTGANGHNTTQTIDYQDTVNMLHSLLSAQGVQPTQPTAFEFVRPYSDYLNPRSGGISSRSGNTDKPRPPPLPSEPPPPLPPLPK
Experimental: as §1

HsGSK3β = HsGSK3β (Homo sapiens, UniProt P49841); test: ADP-Glo kinase assay; format: biochemical, Homo sapiens (Hs); details: mean n = 2, % of maximum activity of DMSO control, read-out: % Residual activity at 1 μM GSK3β
Chain of HsGSK3β (P49841 whole entry): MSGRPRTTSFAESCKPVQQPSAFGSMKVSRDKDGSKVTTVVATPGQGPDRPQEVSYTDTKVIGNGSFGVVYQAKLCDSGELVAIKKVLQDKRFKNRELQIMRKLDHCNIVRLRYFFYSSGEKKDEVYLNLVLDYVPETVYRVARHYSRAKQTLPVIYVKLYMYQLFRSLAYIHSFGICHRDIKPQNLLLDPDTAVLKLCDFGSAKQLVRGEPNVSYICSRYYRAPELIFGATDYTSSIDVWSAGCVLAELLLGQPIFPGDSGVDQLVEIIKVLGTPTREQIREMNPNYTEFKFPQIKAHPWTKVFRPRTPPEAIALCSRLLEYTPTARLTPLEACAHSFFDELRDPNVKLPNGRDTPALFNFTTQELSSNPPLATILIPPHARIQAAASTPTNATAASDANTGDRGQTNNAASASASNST
Experimental: as §1

HsHaspin = molecular target: T1, HsHaspin (Homo sapiens, UniProt Q8TF76); test: ADP-Glo kinase assay; format: biochemical, Homo sapiens (Hs); details: for remaining activity at 1 µM: mean n = 2, % of maximum activity of DMSO control, read-out: % Residual activity at 1 μM Haspin; for IC50: dose-response curve, each point in duplicate, read-out: Kinase inhibition (IC50) Haspin
T1 sequence (Q8TF76 1-798): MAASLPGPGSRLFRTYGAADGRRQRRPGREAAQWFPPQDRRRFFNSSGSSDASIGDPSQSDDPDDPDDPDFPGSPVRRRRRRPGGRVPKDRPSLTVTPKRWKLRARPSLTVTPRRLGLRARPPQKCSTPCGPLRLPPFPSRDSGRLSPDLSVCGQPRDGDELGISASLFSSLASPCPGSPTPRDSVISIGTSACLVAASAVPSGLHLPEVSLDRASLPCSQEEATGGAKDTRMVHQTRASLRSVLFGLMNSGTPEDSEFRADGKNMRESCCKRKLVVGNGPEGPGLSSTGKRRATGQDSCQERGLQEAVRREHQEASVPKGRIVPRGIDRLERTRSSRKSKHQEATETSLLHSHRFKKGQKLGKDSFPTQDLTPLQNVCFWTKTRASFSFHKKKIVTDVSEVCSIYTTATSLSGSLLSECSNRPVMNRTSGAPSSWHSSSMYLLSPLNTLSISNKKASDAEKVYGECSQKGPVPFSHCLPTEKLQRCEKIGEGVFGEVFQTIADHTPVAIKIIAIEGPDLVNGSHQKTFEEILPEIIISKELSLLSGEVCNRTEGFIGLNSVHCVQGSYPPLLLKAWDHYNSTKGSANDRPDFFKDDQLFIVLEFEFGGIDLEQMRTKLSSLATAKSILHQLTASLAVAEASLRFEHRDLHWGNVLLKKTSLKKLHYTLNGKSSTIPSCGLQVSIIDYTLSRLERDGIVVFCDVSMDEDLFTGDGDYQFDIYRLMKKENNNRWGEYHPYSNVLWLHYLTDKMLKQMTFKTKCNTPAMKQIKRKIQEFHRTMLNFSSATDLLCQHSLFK
Experimental: as §1

HsPIM1 = HsPIM1 (Homo sapiens, UniProt P11309); test: ADP-Glo kinase assay; format: biochemical, Homo sapiens (Hs); details: mean n = 2, % of maximum activity of DMSO control, read-out: % Residual activity at 1 μM PIM1
Chain of HsPIM1 (P11309 whole entry): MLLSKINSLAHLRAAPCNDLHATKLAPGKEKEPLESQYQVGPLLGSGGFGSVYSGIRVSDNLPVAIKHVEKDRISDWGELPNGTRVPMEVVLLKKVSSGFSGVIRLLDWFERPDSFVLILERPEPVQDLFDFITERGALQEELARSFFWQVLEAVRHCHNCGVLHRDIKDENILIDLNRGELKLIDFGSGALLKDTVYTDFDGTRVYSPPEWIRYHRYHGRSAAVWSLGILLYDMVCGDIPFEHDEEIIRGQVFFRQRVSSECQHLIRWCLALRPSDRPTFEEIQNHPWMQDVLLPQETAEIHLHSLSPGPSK
Experimental: as §1

MmCLK1 = MmCLK1 (Mus musculus, UniProt P22518); test: ADP-Glo kinase assay; format: biochemical, Mus musculus (Mm); details: for remaining activity at 1 µM: mean n = 2, % of maximum activity of DMSO control, read-out: % Residual activity at 1 μM CLK1; for Selectivity index CLK1/Haspin: IC50 CLK1/IC50 Haspin; for IC50: dose-response curve, each point in duplicate, read-out: Kinase inhibition (IC50) CLK1
Chain of MmCLK1 (P22518 whole entry): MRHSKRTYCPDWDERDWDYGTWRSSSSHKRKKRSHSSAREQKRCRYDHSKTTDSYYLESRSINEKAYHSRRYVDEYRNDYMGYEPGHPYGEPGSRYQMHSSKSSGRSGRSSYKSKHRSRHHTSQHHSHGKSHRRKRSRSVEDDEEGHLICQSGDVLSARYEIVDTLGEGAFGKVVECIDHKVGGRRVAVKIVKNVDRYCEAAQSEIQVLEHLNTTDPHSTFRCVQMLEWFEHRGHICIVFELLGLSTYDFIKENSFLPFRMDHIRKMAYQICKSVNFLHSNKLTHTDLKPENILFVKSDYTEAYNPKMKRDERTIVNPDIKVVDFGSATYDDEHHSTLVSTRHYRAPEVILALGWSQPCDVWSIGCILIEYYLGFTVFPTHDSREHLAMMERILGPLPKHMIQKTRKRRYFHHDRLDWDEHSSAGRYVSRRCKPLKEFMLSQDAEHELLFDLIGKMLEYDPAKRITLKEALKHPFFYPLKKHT
Experimental: as §1

RnDYRK1A = RnDYRK1A (Rattus norvegicus, UniProt Q63470); test: ADP-Glo kinase assay; format: biochemical, Rattus norvegicus (Rn); details: for Selectivity index DYRK/Haspin: IC50 DYRK1A/IC50 Haspin; for IC50: dose-response curve, each point in duplicate, read-out: Kinase inhibition (IC50) DYRK1A; for remaining activity: mean n = 2, % of maximum activity of DMSO control, read-out: % Residual activity at 1 μM DYRK1A
Experimental: as §1

RPE1 cell line = test: Cell viability MTS assay, dose-response; format: cell-based; details: Homo sapiens, RPE-1; 48 h, MTS assay in triplicate, doses up to 50 µM
Experimental: (§2) HCT116 cells were cultured in McCoy’s medium. SH-SY5Y, MDA-MB231 and U-2 OS cells were cultured in Dulbecco's modified Eagle's medium (DMEM) and hTERT RPE-1 cells in DMEM:F12 medium. All media were supplemented with 10% foetal calf serum and cells were cultured at 37 °C in a 5% CO2 humidified atmosphere.
(§3) Cell viability was then assessed using the CellTiter96 AQueous cell proliferation assay from Promega according to the manufacturer’s instructions. Each experiment was done in triplicate and EC50 were determined from the dose-response curves according to the signal given by the control (0.1% DMSO) set at 100% viability using Prism GraphPad software.

U-2 OS cell line = test: Cell viability MTS assay, dose-response; format: cell-based; details: Homo sapiens, U2OS; 48 h, MTS assay in triplicate, doses up to 50 µM
Experimental: as §2, §3

[1] = system: U-2 OS, HCT116, MDA-MB231, SH-SY5Y and RPE-1 cell lines; test: Cell viability primary screen at 25 μM; format: cell-based, human; details: 48 h; for Effect on cell viability, primary screen: all tested cell lines
Experimental: as §2, §3

| SMILES | remaining activity at 1 µM (HsCdk2/Cyc A) [%] | remaining activity at 1 µM (HsCdk5/p25) [%] | remaining activity at 1 µM (HsCdk9/Cyc E) [%] | remaining activity at 1 µM (HsGSK3β) [%] | remaining activity at 1 µM (HsHaspin) [%] | IC50 (HsHaspin) [nM] | remaining activity at 1 µM (HsPIM1) [%] | remaining activity at 1 µM (MmCLK1) [%] | Selectivity index CLK1/Haspin (MmCLK1) | IC50 (MmCLK1) [nM] | Selectivity index DYRK/Haspin (RnDYRK1A) | IC50 (RnDYRK1A) [nM] | remaining activity (RnDYRK1A) [%] | EC50 (RPE1 cell line) [nM] | EC50 (U-2 OS cell line) [nM] | Reduction of cell viability compared to the DMSO control [1] [%] | melting point [°C] | Effect on cell viability, primary screen [1] |
| --- | --- | --- | --- | --- | --- | --- | --- | --- | --- | --- | --- | --- | --- | --- | --- | --- | --- | --- |
| O=c1[nH]c2ccc(O)cc2c2c1[nH]c1ccccc12 [Compound 48, 2-Hydroxy-5,7-dihydro-6H-indolo[2,3-c]quinolin-6-one] | 84 | 87 | 49 | 100 | 1 | 6 | 63 | 4 | 3 | 17 | 3 | 19 | 12 | 7300 | 7000 | ≥ 75 | 235 to 238 | – |
| COc1ccc2[nH]c3c(=O)[nH]c4cc(O)ccc4c3c2c1 [Compound 54, 3-Hydroxy-10-methoxy-5,7-dihydro-6H-indolo[2,3-c]quinolin-6-one] | 35 | 59 | 18 | 48 | 0 | 4 | 9 | 11 | 21 | 82 | 24 | 97 | 2 | > 25000 | > 25000 | – | 227 to 230 | little to no effect |
| COc1ccc2[nH]c(=O)c3[nH]c4ccc(OC)cc4c3c2c1 [Compound 51, 2,10-Dimethoxy-5,7-dihydro-6H-indolo[2,3-c]quinolin-6-one] | 62 | 70 | 33 | 29 | 1 | 4 | 36 | 5 | 3 | 10 | 10 | 41 | 14 | > 25000 | 12600 | – | 190 to 192 | little to no effect |
| COc1ccc2[nH]c3c(=O)[nH]c4ccc(N)cc4c3c2c1 [Compound 56, 2-Amino-10-methoxy-5,7-dihydro-6H-indolo[2,3-c]quinolin-6-one] | 72 | 79 | 37 | 39 | 2 | 14 | 65 | 3 | 15 | 213 | 16 | 226 | 7 | > 25000 | > 25000 | – | > 250 | little to no effect |
| COc1ccc2c(c1)[nH]c(=O)c1[nH]c3ccc(OC)cc3c12 [Compound 50, 3,10-Dimethoxy-5,7-dihydro-6H-indolo[2,3-c]quinolin-6-one] | 77 | 81 | 51 | 44 | 3 | 7 | 19 | 10 | 13 | 88 | 28 | 196 | 5 | 20800 | 4300 | ≥ 75 | 192 to 195 | – |
| COc1ccc2[nH]c3c(=O)[nH]c4ccccc4c3c2c1 [Compound 49, 10-Methoxy-5,7-dihydro-6H-indolo[2,3-c]quinolin-6-one] | 73 | 77 | 40 | 39 | 2 | 1 | 41 | 5 | – | 13 | – | 15 | 7 | > 25000 | > 25000 | – | 232 to 235 | little to no effect |
| O=c1[nH]c2ccc(O)cc2c2c1[nH]c1ccc(F)cc12 [Compound 61, 10-Fluoro-2-Hydroxy-5,7-dihydro-6H-indolo [2,3-c]quinolin-6-one] | 57 | 91 | 41 | 71 | 0 | 5 | 38 | 2 | 16 | 78 | 21 | 104 | 9 | 19100 | 8700 | ≥ 75 | 240 to 243 | – |
| COc1ccc2[nH]c(=O)c3[nH]c4ccccc4c3c2c1 [Compound 46, 2-Methoxy-5,7-dihydro-6H-indolo[2,3-c]quinolin-6-one] | 80 | 78 | 62 | 86 | 6 | 7 | 32 | 13 | 7 | 51 | 10 | 68 | 18 | > 25000 | > 25000 | – | > 250 | little to no effect |
